Test results from US5216162A, “Substituted pyrrolo[3,2-c]quinolines” (American Home Products Corporation, priority 1992, dated 1993).

Test system: IL-1-induced release of neutral protease from rabbit articular chondrocytes
Assay: Inhibition of IL-1-induced release of neutral protease from rabbit articular chondrocytes (azocoll neutral protease assay)
Format: cell-based, rabbit (male New Zealand white)
Settings: Oryctolagus cuniculus, Chondrocyte, purified human IL-1 stimulation
Experimental: The ability of the compounds of the inventions to inhibit interleukin 1 is measured by the ability of the test compounds to inhibit the IL-1-induced release of neutral protease from rabbit articular chondrocytes.
This assay is carried out as follows:
Isolation of rabbit chondrocytes
Male New Zealand white rabbits are anesthetized with 50 mg/kg of ketamine (i.m.) and killed by an intracardiac injection of 3 mls of Nembutal. The knee joints of both legs are resected and the articular surfaces are exposed. Cartilage slices are obtained using a scalpel and are placed in a tissue culture dish (100 mm diameter) containing 10 mls of Hank's balanced salt solution (HBSS). The chondrocytes within the cartilage slices are then liberated by a series of enzyme digestions. The slices are incubated for 10 minutes at 37° C. in 0.05% hyaluronidase (Sigma H-3884), rinsed with HBSS and incubated with 0.2% trypsin (Sigma T-2395) for 10 minutes at 37° C. The slices are rinsed again and incubated for 10 minutes at 37° C. with 1.2% collagenase (Sigma C-5138). The slices are then rinsed again with HBSS and resuspended in 10 ml of Ham's F-12 medium containing 10% fetal bovine calf serum (FCS) and 0.2% collagenase and incubated overnight at 37° C. in a 5% CO2 incubator. The next day, the medium containing the digested cartilage fragments and liberated chondrocytes is transferred to a 15 ml centrifuge tube and the cells are collected by centrifugation and washed twice and resuspended in Ham's F-12 medium. The cells are then plated into 24-well tissue culture plates (2×10^ 5 cells/well) and incubated at […] until confluent (usually 4-6 days).
Stimulation of chondrocytes and drug treatment
The confluent chondrocytes are rinsed twice with serum-free Ham's F-12 medium and 1 ml is added to each well. Fifty μl of purified human IL-1 (100 Units/ml; Genzyme Corporation, Boston, MA) is then added to stimulate these cells to secrete neutral protease. To measure drug effects, the cells are treated with test compound 10 minutes prior to addition of IL-1. The standard screening dose is 10 μM. Twenty-four hours after IL-1 stimulation, supernatant fluids are collected and assayed for neutral protease activity.
The neutral protease activity of chondrocyte supernatant fluids is determined by their ability to degrade an insoluble protease substrate, azocoll (Sigma). Supernatants are treated for 10 minutes at room temperature with 350 μM p-aminophenylmurcuric acetate to activate the latent enzyme. Three hundred of μl of supernatant is then mixed with 500 μl of a 20 mg/ml suspension of azocoll and incubated at 37° C. for 18-24 hours with gentle rocking. The mixtures are centrifuged and the amount of substrate hydrolyzed is determined by measuring the absorbance of the supernatant at 520 nm.
Drug effects are calculated as the % change in enzyme activity (absorbance)by supernatants from drug-treated chondrocytes relative to enzyme activity of supernatants from vehicle-treated chondrocytes as follows: [formula]
Where tested in this assay, the compounds of the invention gave the following results: […]

[1] = test compound 10 min before IL-1, 24 h, read-out: % Inhibition (I.S.D.)

Compound | inhibition at 0.1 µM (dose 0.1 μM, test compound 10 min before IL-1, 24 h, read-out: % Inhibition (I.S.D.)) [%] | inhibition at 1 µM (dose 1 μM, test compound 10 min before IL-1, 24 h, read-out: % Inhibition (I.S.D.)) [%] | inhibition at 10 µM [1] [%] | IC50 (24 h, doses 10, 1 and 0.1 μM) [nM]
CS(=O)(=O)c1ccc(NCCc2[nH]c3c(cnc4cc(Cl)ccc43)c2C=NNc2ccccc2)cc1 [Example 6, 7-Chloro-2-[2-[[4-(methylsulfonyl)phenyl]amino]ethyl]-1H-pyrrolo[3,2-c]quinoline-3-carboxaldehyde phenylhydrazone] | 14 | 23 | 80 | 2900
CCOC(=O)c1ccc(NCCc2[nH]c3c(cnc4cc(Cl)ccc43)c2C=O)cc1 [Example 2, 4-[[2-(7-Chloro-3-formyl-1H-pyrrolo[3,2-c]quinolin-2-yl)ethyl]amino]benzoicacid ethyl ester] | – | – | 50 | –
N#Cc1ccc(NCCc2[nH]c3c(cnc4cc(Cl)ccc43)c2C=NNc2ccccc2)cc1 [Example 4, 4-[[2-[7-Chloro-3-[(phenylhydrazono)methyl]-1H-pyrrolo[3,2-c]quinolin-2-yl]ethyl]amino]benzonitrile] | – | – | 52 | –
N#Cc1ccc(NCCc2[nH]c3c(cnc4cc(Cl)ccc43)c2C=O)cc1 [Example 1, 4-[[2-(7-Chloro-3-formyl-1H-pyrrolo[3,2-c]-quinolin-2-yl)ethyl]amino]benzonitrile] | – | – | 21 | –
CCOC(=O)c1ccc(NCCc2[nH]c3c(cnc4cc(Cl)ccc43)c2C=NNc2ccccc2)cc1 [Example 5, 4-[[2-[7-Chloro-3-[(phenylhydrazono)methyl]-1H-pyrrolo[3,2-c]quinolin-2-yl]ethyl]amino]benzoic acid ethyl ester] | – | – | 54 | –
CS(=O)(=O)c1ccc(NCCc2[nH]c3c(cnc4cc(Cl)ccc43)c2C=O)cc1 [Example 3, 7-Chloro-2-[2-[[4-(methylsulfonyl)phenyl]amino]ethyl]-1H-pyrrolo[3,2-c]quinoline-3-carboxaldehyde] | – | – | 28 | –
